According to US20070208003A1, “COMPOUNDS AND METHODS FOR TREATING DYSLIPIDEMIA” (priority 2004, published 2007):

Tested on: transgenic mice that express both human CETP and human apolipoprotein A-1
Experiment: Assay of plasma lipids in vivo: elevation of HDL cholesterol
Conditions: single oral dose 30 mg/kg; at 8 hr; serum HDL cholesterol relative to control; transgenic mice expressing human CETP and human apolipoprotein A-1
Method: Assay of Plasma Lipids In Vivo.
Activity of compounds of this invention in vivo can be determined by the level of elevation of HDL cholesterol relative to control by a given amount of compound in a CETP-containing animal species. A strain of transgenic mice that express both human CETP and human apolipoprotein A-1 (Taconic, Germantown, N.Y.) is used to test compounds of this invention. Test compounds are administered once orally in selected aqueous or oil based vehicles. At various times after dosing, ranging from 4 h to 24 h, blood is obtained. Blood is allowed to clot and serum is obtained by centrifugation. HDL cholesterol levels in the serum is determined by HDL-C plus reagents (Roche/Hitachi, Indianapolis, Ind.) with a clinical chemistry analyzer (Roche/Hitachi, Indianapolis, Ind.). Additional serum lipids can be analyzed by enzymatic methods. Lipids in the VLDL, LDL and HDL fractions are analyzed by enzymatic methods after precipitation or size exclusion chromatography.

## Cc1nc2c(cc1C(F)(F)F)N(C(=O)OC(C)C)CCCC2N(Cc1cc(C(F)(F)F)cc(C(F)(F)F)c1)c1nnn(C)n1 (racemic) [Example 14]
  % HDL cholesterol increase: 91%
